The molecules below were run against T1, STING (Homo sapiens, UniProt Q86WV6, G230A/H232R/R293Q/R71H) (assay: STING reporter assay (luciferase) in THP1-Dual KO-IFNAR2 cells stimulated with 2′3′cGAMP). Conditions: 2′3′cGAMP 15 μM final, 24 h, luciferase reporter activity, read-out: Pharmaron, THP1_IFNAR2 STING 24 h Luci Normalized: GeoMean EC50.
T1 construct: host or cells: THP1-Dual KO-IFNAR2 cells
T1 sequence (Q86WV6 whole entry R71H/G230A/H232R/R293Q): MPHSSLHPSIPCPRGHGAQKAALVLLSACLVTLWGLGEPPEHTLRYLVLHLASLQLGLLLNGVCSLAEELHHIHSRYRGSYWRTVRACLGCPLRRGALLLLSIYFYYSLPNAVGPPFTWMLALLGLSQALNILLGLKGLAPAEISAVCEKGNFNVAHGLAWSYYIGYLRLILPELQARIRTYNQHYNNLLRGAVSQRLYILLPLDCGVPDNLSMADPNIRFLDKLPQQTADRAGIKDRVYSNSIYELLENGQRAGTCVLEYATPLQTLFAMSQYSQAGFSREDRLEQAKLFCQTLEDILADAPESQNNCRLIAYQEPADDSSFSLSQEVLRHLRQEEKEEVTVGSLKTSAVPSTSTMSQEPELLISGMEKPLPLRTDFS
Format: cell-based
Experimental: STING pathway activation by the compounds described herein was measured using TTIP1-Dual™ cells (KO-IFNAR2).
TTIP1-Dual™ KO-IFNAR2 Cells (obtained from invivogen) were maintained in RPMI, 10% FCS, 5 ml P/S, 2 mM L-glut, 10 mM Hepes, and 1 mM sodium pyruvate. Compounds were spotted in empty 384 well tissue culture plates (Greiner 781182) by Echo for a final concentration of 0.0017-100 μM. Cells were plated into the TC plates at 40 μL per well, 2×10E6 cells/mL. For activation with STING ligand, 2′3′cGAMP (MW 718.38, obtained from Invivogen), was prepared in Optimem media.
The following solutions were prepared for each 1×384 plate: • Solution A: 2 mL Optimem with one of the following stimuli: • […] • Solution B: 2 mL Optimem with […] Lipofectamine 2000→Incubate 5 min at RT
2 mL of solution A and 2 ml Solution B was mixed and incubated for 20 min at room temperature (RT). 20 μL of transfection solution (A+B) was added on top of the plated cells, with a final 2′3′cGAMP concentration of 15 μM. The plates were then centrifuged immediately at 340 g for 1 minute, after which they were incubated at 37° C., 5% CO2, >98% humidity for 24 h. Luciferase reporter activity was then measured. EC50 values were calculated by using standard methods known in the art.
Luciferase reporter assay: 10 μL of supernatant from the assay was transferred to white 384-plate with flat bottom and squared wells. One pouch of QUANTI-Luc™ Plus was dissolved in 25 mL of water. 100 μL of QLC Stabilizer per 25 mL of QUANTI-Luc™ Plus solution was added. 50 μL of QUANTI-Luc™ Plus/QLC solution per well was then added. Luminescence was measured on a Platereader (e.g., Spectramax I3X (Molecular Devices GF3637001)).
Luciferase reporter activity was then measured. EC50 values were calculated by using standard methods known in the art.
With `O=C(Nc1c[nH]c2ccc(O[C@H]3C[C@@H](c4ccc(C(F)(F)F)cc4)C3)cc12)C12CC(F)(C1)C2` [Compound 132, 3-fluoro-N-(5-((1s,3s)-3-(4-(trifluoromethyl)phenyl)cyclobutoxy)-1H-indol-3-yl)bicyclo[1.1.1]pentane-1-carboxamide] the EC50 was 200 to 1000 nM.
Molecule `O=C(Nc1c[nH]c2ccc(O[C@H]3C[C@H](c4ccc(C(F)(F)F)cc4)C3)cc12)C12CC(F)(C1)C2` [Compound 133, 3-fluoro-N-(5-((1r,3r)-3-(4-(trifluoromethyl)phenyl)cyclobutoxy)-1H-indol-3-yl)bicyclo[1.1.1]pentane-1-carboxamide] has an EC50 of 40 to 200 nM.
For `O=C(Nc1c[nH]c2ccc(COCc3ccc(C(F)(F)F)cc3)cc12)C12CC(F)(C1)C2` [Compound 134, 3-fluoro-N-(5-(((4-(trifluoromethyl)benzyl)oxy)methyl)-1H-indol-3-yl)bicyclo[1.1.1]pentane-1-carboxamide], the EC50 was 200 to 1000 nM.
With `O=C(Nc1c[nH]c2ccc(CCOc3ccc(C(F)(F)F)cc3)cc12)C12CC(C1)C2` [Compound 135] the EC50 was 200 to 1000 nM.
In the case of `Cn1ccnc1C(=O)Nc1c[nH]c2ccc(OCc3ccc(C(F)(F)F)cc3)cc12` [Compound 136, 1-methyl-N-(5-((4-(trifluoromethyl)benzyl)oxy)-1H-indol-3-yl)-1H-imidazole-2-carboxamide], the EC50 is reported as 200 to 1000 nM.
Work on `O=C(Nc1c[nH]c2ccc(OCc3ccc(C(F)(F)F)cc3)cc12)c1ccn[nH]1` [Compound 137, N-(5-((4-(trifluoromethyl)benzyl)oxy)-1H-indol-3-yl)-1H-pyrazole-5-carboxamide] yielded an EC50 of 200 to 1000 nM.
In the case of `O=C(Nc1c[nH]c2ccc(OCc3ccc(C(F)(F)F)cc3)cc12)C12CC(F)(C1)C2` [Compound 138, 3-fluoro-N-(5-((4-(trifluoromethyl)benzyl)oxy)-1H-indol-3-yl)bicyclo[1.1.1]pentane-1-carboxamide], the EC50 is reported as 200 to 1000 nM.
`Cn1ccnc1C(=O)Nc1c[nH]c2ccc(O[C@H]3C[C@@H](c4ccc(C(F)(F)F)cc4)C3)cc12` [Compound 139, 1-methyl-N-(5-((1s,3s)-3-(4-(trifluoromethyl)phenyl)cyclobutoxy)-1H-indol-3-yl)-1H-imidazole-2-carboxamide] gave an EC50 of 200 to 1000 nM.
Work on `Cn1ccnc1C(=O)Nc1c[nH]c2ccc(OCC[C@@H]3C[C@@H]4CN(CC(F)(F)F)C[C@@H]4C3)cc12` [Compound 140, 1-methyl-N-(5-(2-((3aR,5r,6aS)-2-(2,2,2-trifluoroethyl)octahydrocyclopenta[c]pyrrol-5-yl)ethoxy)-1H-indol-3-yl)-1H-imidazole-2-carboxamide] yielded an EC50 of 200 to 1000 nM.
Molecule `O=C(Nc1c[nH]c2ccc(OCc3ccc(C(F)(F)F)cc3)cc12)c1nccs1` [Compound 141, N-(5-((4-(trifluoromethyl)benzyl)oxy)-1H-indol-3-yl)thiazole-2-carboxamide] has an EC50 of 200 to 1000 nM.
In the case of `CC12CC(C(=O)Nc3c[nH]c4ccc(OCC[C@@H]5C[C@@H]6CN(CC(F)(F)F)C[C@@H]6C5)cc34)(C1)C2` [Compound 142, 3-methyl-N-(5-(2-((3aR,5r,6aS)-2-(2,2,2-trifluoroethyl)octahydrocyclopenta[c]pyrrol-5-yl)ethoxy)-1H-indol-3-yl)bicyclo[1.1.1]pentane-1-carboxamide], the EC50 is reported as 200 to 1000 nM.
In the case of `Cn1ccnc1C(=O)Nc1c[nH]c2ccc(CCOc3ccc(C(F)(F)F)cc3)cc12` [Compound 143, 1-methyl-N-(5-(2-(4-(trifluoromethyl)phenoxy)ethyl)-1H-indol-3-yl)-1H-imidazole-2-carboxamide], the EC50 is reported as 40 to 200 nM.
`O=C(Nc1c[nH]c2ccc(CCOc3ccc(C(F)(F)F)cc3)cc12)C1CC2(CCC2)C1` [Compound 144, N-(5-(2-(4-(trifluoromethyl)phenoxy)ethyl)-1H-indol-3-yl)spiro[3.3]heptane-2-carboxamide] gave an EC50 of 40 to 200 nM.
Molecule `O=C(Nc1c[nH]c2ccc(CCOc3ccc(C(F)(F)F)cc3)cc12)c1ncco1` [Compound 145, N-(5-(2-(4-(trifluoromethyl)phenoxy)ethyl)-1H-indol-3-yl)oxazole-2-carboxamide] has an EC50 of 200 to 1000 nM.
In the case of `Cn1ccnc1C(=O)Nc1c[nH]c2ccc(OCCc3ccc(C(F)(F)F)cc3)cc12` [Compound 146, 1-methyl-N-(5-(4-(trifluoromethyl)phenethoxy)-1H-indol-3-yl)-1H-imidazole-2-carboxamide], the EC50 is reported as 40 to 200 nM.
`O=C(Nc1c[nH]c2ccc(OCc3ccc(C(F)(F)F)cc3)cc12)c1ccncc1` [Compound 147, N-(5-((4-(trifluoromethyl)benzyl)oxy)-1H-indol-3-yl)isonicotinamide] showed an EC50 of 200 to 1000 nM.
In the case of `O=C(Nc1c[nH]c2ccc(OCc3ccc(C(F)(F)F)cc3)cc12)c1cccnc1` [Compound 148, N-(5-((4-(trifluoromethyl)benzyl)oxy)-1H-indol-3-yl)nicotinamide], the EC50 is reported as 200 to 1000 nM.
With `O=C(Nc1c[nH]c2ccc(OCc3ccc(C(F)(F)F)cc3)cc12)c1ccccn1` [Compound 149, N-(5-((4-(trifluoromethyl)benzyl)oxy)-1H-indol-3-yl)picolinamide] the EC50 was 5000 to 100000 nM.
Molecule `O=C(CC1CC1)Nc1c[nH]c2ccc(OCc3ccc(C(F)(F)F)cc3)cc12` [Compound 150, 2-cyclopropyl-N-(5-((4-(trifluoromethyl)benzyl)oxy)-1H-indol-3-yl)acetamide] has an EC50 of 200 to 1000 nM.
Work on `O=C(Nc1c[nH]c2ccc(OCc3ccc(C(F)(F)F)cc3)cc12)C1CC2(CCC2)C1` [Compound 151, N-(5-((4-(trifluoromethyl)benzyl)oxy)-1H-indol-3-yl)spiro[3.3]heptane-2-carboxamide] yielded an EC50 of 200 to 1000 nM.
`O=C(Nc1c[nH]c2ccc(OCc3ccc(C(F)(F)F)cc3)cc12)c1ncccc1F` [Compound 152, 3-fluoro-N-(5-((4-(trifluoromethyl)benzyl)oxy)-1H-indol-3-yl)picolinamide] gave an EC50 of 200 to 1000 nM.
For `Cc1noc(C)c1C(=O)Nc1c[nH]c2ccc(OCc3ccc(C(F)(F)F)cc3)cc12` [Compound 153, 3,5-dimethyl-N-(5-((4-(trifluoromethyl)benzyl)oxy)-1H-indol-3-yl)isoxazole-4-carboxamide], the EC50 was 200 to 1000 nM.
In the case of `O=C(Nc1c[nH]c2ccc(OCc3ccc(C(F)(F)F)cc3)cc12)c1cncs1` [Compound 154, N-(5-((4-(trifluoromethyl)benzyl)oxy)-1H-indol-3-yl)thiazole-5-carboxamide], the EC50 is reported as 200 to 1000 nM.
In the case of `O=C(Nc1c[nH]c2ccc(O[C@H]3C[C@@H](c4ccc(C(F)(F)F)cc4)C3)cc12)C1CC2(CCC2)C1` [Compound 155, N-(5-((1s,3s)-3-(4-(trifluoromethyl)phenyl)cyclobutoxy)-1H-indol-3-yl)spiro[3.3]heptane-2-carboxamide], the EC50 is reported as 200 to 1000 nM.
`O=C(Nc1c[nH]c2ccc(O[C@H]3C[C@@H](c4ccc(C(F)(F)F)cc4)C3)cc12)C1CC2(CC2)C1` [Compound 156, N-(5-((1s,3s)-3-(4-(trifluoromethyl)phenyl)cyclobutoxy)-1H-indol-3-yl)spiro[2.3]hexane-5-carboxamide] gave an EC50 of 200 to 1000 nM.
`O=C(Nc1c[nH]c2ccc(OCC[C@@H]3C[C@@H]4CN(CC(F)(F)F)C[C@@H]4C3)cc12)C1CC2(CCC2)C1` [Compound 157, N-(5-(2-((3aR,5r,6aS)-2-(2,2,2-trifluoroethyl)octahydrocyclopenta[c]pyrrol-5-yl)ethoxy)-1H-indol-3-yl)spiro[3.3]hexane-2-carboxamide] was tested, and the EC50 was 200 to 1000 nM.
